Measurements reported in ChEMBL document CHEMBL2094269, “WEHI/Eskitis Trypanosoma b. brucei screening data”.
pIC50: −log10 of the molar value. Values joined by “and” are separate entries in the source; they are usually repeats but may differ in a detail not shown here. Equal values may be shown once.

Tests used:
Plasmodium falciparum = assay: DNDI: Inhibition of the malaria parasite Plasmodium falciparum, in vitro; assay type: functional, organism-based; settings: K1
[1] = tested on: Trypanosoma brucei rhodesiense; assay: DNDI: Inhibition of Human African Trypanosomiasis (HAT), STIB 900, in vitro; assay type: functional, organism-based
[2] = DNDI: Cytotoxicity against L-6 rat myoblasts from skeletal muscle.; assay type: toxicity, cell-based, Muscle tissue, L6; settings: L-6 rat skeletal muscle myoblast cells
[3] = (§1) DNDI: Cytotoxicity against human MRC-5 lung fibroblast cells.; settings: IC50
[4] = tested on: Trypanosoma brucei brucei; assay: microbe, parasite or virus in culture; assay type: functional, organism-based, STIB 795
Description: DNDI: Inhibition of Human African Trypanosomiasis (HAT), STIB 795, in vitro

Leishmania donovani = assay: DNDI: Inhibition of formation of Leishmania donovani (strain MHOM/ET/67/L82) axenic amastigotes, in vitro.; assay type: functional, organism-based
Trypanosoma cruzi = assay: DNDI: Inhibition of Chagas Disease parasite Trypanosoma cruzi (Tulahuen LacZ, Clone C4), in vitro.; assay type: functional, organism-based
MRC5 = assay: as §1

| Structure (SMILES) | pIC50 [3] | pIC50 ([4]; Trypanosoma brucei, STIB 795) | also measured |
| --- | --- | --- | --- |
| CC(C)(C)C(=O)NCCc1csc(-c2cccc(F)c2)n1 | < 4.38 | 6.36 | pIC50 (Plasmodium falciparum): 4.97; pIC50 [1]: 6.35; pIC50 [2]: 4.72; pIC50 (Leishmania donovani): 4.85; pIC50 (Trypanosoma cruzi): 6.15 |
| O=C(CCc1ccccc1)N/N=C/c1ccc(O)c2ncccc12 | < 4.98 | 6.32 | pIC50 (MRC5): < 4.68; pIC50 [4]: 6.34 |
| COc1ccc2[nH]c(C)c(CCNCCC3=C(C)CCCC3(C)C)c2c1 | 5.23 | 5.88 | pIC50 (MRC5): 5.31; pIC50 [4]: 5.75 |
| CC1=NN(c2cccc(Cl)c2)C(=O)/C1=C\NNC(=O)c1ccccc1 | < 5.38 | 5.83 | pIC50 (MRC5): 5.34; pIC50 [4]: 5.72 |
| Cc1ccc2[nH]c3c(c2c1)CCCC3CN (stereo not given) | < 4.98 | 5.91 | pIC50 (MRC5): < 4.68; pIC50 [4]: 6.18 |
| COc1ccc(C(NC(=O)C(C)C)c2ccc3cccnc3c2O)cc1OC (stereo not given) | 5.64 |  | pIC50 (MRC5): < 5.38; pIC50 [4]: 5.56 and 5.97 |
| CCc1ccccc1/N=C(\NCCN1CCOCC1)NC(=O)c1ccccc1 | < 4.38 | 6.17 | pIC50 (Plasmodium falciparum): 5.69; pIC50 [1]: 6.48; pIC50 [2]: 4.30; pIC50 (Leishmania donovani): 4.08; pIC50 (Trypanosoma cruzi): 4.51 |
| Cc1ccc(-c2cnc3ccccc3[n+]2C)c(C)c1 | < 4.68 |  | pIC50 (MRC5): < 4.98; pIC50 [4]: 6.13 and 5.48 |
| Cc1cc(=O)[nH]c(-n2nc(C)cc2NC(=O)C2CCCC2)n1 | < 4.98 | 6.36 | pIC50 (Plasmodium falciparum): 5.62; pIC50 [1]: 5.85; pIC50 [2]: 6.58; pIC50 (Leishmania donovani): 6.84; pIC50 (Trypanosoma cruzi): 5.35 |
| O=C(NCCc1n[nH]c(-c2ccc(F)cc2)n1)c1cccc(F)c1 | < 4.38 | 5.71 | pIC50 (Plasmodium falciparum): 5.11; pIC50 [1]: 5.65; pIC50 [2]: 4.41; pIC50 (Leishmania donovani): 4.81; pIC50 (Trypanosoma cruzi): 5.20 |
| CC(C)(C)c1ccc(C(=O)O/N=C(\N)c2ccncc2)cc1 | < 4.38 | 6.02 |  |
| O=C(N/N=C/c1ccc(Cl)cc1Cl)c1ccc(O)c(O)c1 | < 4.68 | 5.81 |  |
| COc1ccc(/C(N)=N/OC(=O)c2ccccc2Cl)cc1 | < 4.68 | 5.92 |  |
| N=c1n(CCOc2ccccc2)c2ccccc2n1Cc1ccc(Cl)cc1 | < 4.38 | 5.18 |  |
| O=C(CC(SCc1ccco1)c1ccc(Cl)cc1)c1ccco1 (stereo not given) | < 4.38 |  | pIC50 [4]: 5.29 and < 4.98 |
| CCCC(=O)NC(c1cccc(F)c1)c1ccc2cccnc2c1O (stereo not given) | < 4.68 | 5.15 |  |
| CCc1ccccc1Nc1nc(-c2ccc(O)cc2O)cs1 | < 4.38 | 5.44 |  |
| Cc1nn2c(=O)cc(-c3ccc(F)cc3)[nH]c2c1-c1ccccc1 | 5.62 | 6.04 |  |
| Cc1nnc(N/N=C/c2cc(Br)ccc2O)nc1O | 5.47 | 5.52 |  |
| CC(=O)NC(=S)NNC(=O)c1ccccc1OCc1ccccc1 | < 4.68 | 5.54 |  |
| COc1ccc(C(=N)NOC(=O)c2ccco2)cc1 | < 4.68 | 5.43 |  |
| C=CCn1c(-c2cccs2)nn(C2CC(=O)C3OCC2O3)c1=S (stereo not given) | < 4.68 | 5.32 | pIC50 [4]: 5.36 |
| COc1cc(CNCCO)cc(Br)c1OCc1ccccc1 | < 4.38 | 5.33 |  |
| CC(=O)C(C(C)=O)C1=CC(=O)C(=O)c2ccccc21 | < 4.68 | 5.15 |  |
| CCc1ccc2nc3nc(C)cc(C)c3c(N)c2c1 | < 4.68 | 5.31 |  |
| OCCNC1CCCc2c1[nH]c1ccc(Br)cc21 (stereo not given) | < 4.68 | 5.61 | pIC50 [4]: 5.74 |

| Structure (SMILES) | pIC50 [3] | pIC50 ([4]; Trypanosoma brucei, STIB 795) | also measured |
| --- | --- | --- | --- |
| Oc1c(C(c2ccc(C(F)(F)F)cc2)N2CCOCC2)ccc2cccnc12 (stereo not given) | < 4.68 | 5.27 |  |
| CCN(CC)c1ccc(C2N(C)c3ccccc3N2C)cc1 | < 4.38 | 5.60 |  |
| CCOC(=O)c1c(CN2CCOCC2)oc2c1C(=O)C(=O)c1ccccc1-2 | < 4.68 | 6.07 |  |
| O=c1ccccc2c(/C=C/c3cccc(Cl)c3Cl)nn(-c3ccccc3)c12 | < 4.98 | 5.27 |  |
| CCS(=O)(=O)N1CCCc2ccc(NS(=O)(=O)c3ccccc3F)cc21 | < 4.38 | 5.89 | pIC50 (Plasmodium falciparum): 5.30; pIC50 [1]: 5.24; pIC50 [2]: 5.06; pIC50 (Leishmania donovani): 5.58; pIC50 (Trypanosoma cruzi): 5.23 |
| CC(C)Cc1ccc(C(C)C(=N)NC2CCCCC2)cc1 (stereo not given) | < 4.68 | 5.26 |  |
| Cc1ccc(OCCCCCN2CCNCC2)c(C)c1 | < 4.38 | 5.27 |  |
| COc1ccc(C2=C(C)C(=O)C(C)=C(C)C2=O)cc1 | < 4.68 | 5.26 |  |
| O=C(Cc1cc(O)[nH]n1)N/N=C/C=C/c1ccccc1 | < 4.38 | 5.27 |  |
| Cc1ccc2ccc3ccc(C)nc3c2n1 [NEOCUPROINE] | < 4.68 | 6.25 |  |
| C/C(=N\NC(=O)Cc1ccc(F)cc1)c1ccccn1 | < 5.38 | 5.29 |  |
| CC(C)/C(N)=N/OC(=O)c1ccc(I)cc1 | < 4.38 | 6.09 |  |
| Nc1ccc(Nc2coc3ccccc23)cc1 | < 4.68 | 5.43 |  |
| CNCc1ccccc1Sc1cccc2ccccc12 | < 4.38 | 5.32 |  |
| Cn1cnn(C2CC(=O)C3OCC2O3)c1=S (stereo not given) | < 4.68 | 5.43 | pIC50 [4]: 5.68 |
| CC1=NN(C(=O)c2ccccc2O)C(C)(O)C1 (stereo not given) | < 5.98 | 6.18 |  |
| C/C(=N\NC(=O)c1cccc2ccccc12)c1ccccn1 | < 5.38 | 5.63 |  |
| CCOc1ccc(N(C(C)=O)C2=C(N(C)C)C(=O)c3ccccc3C2=O)cc1 | < 5.38 | 5.29 |  |
| CCN1C(=Cc2sc3ccc(Cl)cc3[n+]2CC)C=Cc2cc(OC)ccc21 | < 5.38 | 6.15 |  |
| CC1=NN(c2ccc3cccc(O)c3n2)C(=O)C1 | < 4.98 | 5.88 |  |
| O=C(O)c1ccc(NNc2c3ccccc3nc3ccccc23)cc1 | < 4.38 | 5.99 |  |
| CC(C)(C)c1ccc(CN2CCCn3c2nc2ccccc23)cc1 | < 4.68 | 5.25 |  |
| Oc1cccnc1NC(c1ccc(Cl)cc1)c1ccc2cccnc2c1O (stereo not given) | < 4.38 | 5.40 |  |
| CCOc1ccc(C2=CC(C(C(C)=O)C(C)=O)c3ccccc3O2)cc1 (stereo not given) | < 4.38 | 5.35 |  |
| Cc1nc2c(cc(O)c3ccccc32)s1 | < 4.38 | 5.26 |  |
